Reference: PubChem BioAssay AID256 (DTP/NCI, 2004)
Several values for one entry are separate records, joined by “and”; a condition that tells them apart may be missing. Equal entries are not always repeated. Toxic doses and inconclusive results are not listed. How the source made its calls: active means survival T/C of 150% or more; inactive means T/C below 125% in these data.

Test system: CD2F1 mice, L1210 leukemia ip, survival T/C
Test: NCI In Vivo Anticancer Drug Screen. Data for tumor model L1210 Leukemia (intraperitoneal) in CD2F1 (CDF1) mice
Details: higher = longer survival
Procedure, shortened: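 In this screen, transplantable tumors were grown in mice given either the compound or its vehicle. Results were expressed as the treated measurement relative to the control measurement.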

[1] = endpoint: mean survival time, dose: 50.0 mg/kg/injection, schedule: Q01DX009 (ip), vehicle: Klucel (hydroxypropylcellulose) (HPC)
[2] = endpoint: mean survival time, dose: 100.0 mg/kg/injection, schedule: Q01DX009 (ip), vehicle: Klucel (hydroxypropylcellulose) (HPC)
[3] = endpoint: mean survival time, dose: 100.0 mg/kg/injection, schedule: Q04DX003 (ip), vehicle: saline
[4] = endpoint: mean survival time, dose: 200.0 mg/kg/injection, schedule: Q01DX009 (ip), vehicle: Klucel (hydroxypropylcellulose) (HPC)
[5] = endpoint: mean survival time, dose: 200.0 mg/kg/injection, schedule: Q04DX003 (ip), vehicle: saline
[6] = endpoint: mean survival time, dose: 400.0 mg/kg/injection, schedule: Q04DX003 (ip), vehicle: saline
[7] = endpoint: mean survival time, dose: 25.0 mg/kg/injection, schedule: Q01DX009 (ip), vehicle: Klucel (hydroxypropylcellulose) (HPC)
[8] = endpoint: mean survival time, dose: 100.0 mg/kg/injection, schedule: Q04DX002 (ip), vehicle: saline with Tween-80
[9] = endpoint: mean survival time, dose: 25.0 mg/kg/injection, schedule: Q04DX002 (ip), vehicle: saline with Tween-80
[10] = endpoint: mean survival time, dose: 100.0 mg/kg/injection, schedule: Q01DX009 (ip), vehicle: saline with Tween-80
[11] = endpoint: mean survival time, dose: 200.0 mg/kg/injection, schedule: Q01DX009 (ip), vehicle: saline with Tween-80
[12] = endpoint: mean survival time, dose: 50.0 mg/kg/injection, schedule: Q01DX009 (ip), vehicle: saline with Tween-80
[13] = endpoint: mean survival time, dose: 100.0 mg/kg/injection, schedule: Q01DX001 (ip), vehicle: saline with Tween-80
[14] = endpoint: mean survival time, dose: 200.0 mg/kg/injection, schedule: Q01DX001 (ip), vehicle: saline with Tween-80
[15] = endpoint: mean survival time, dose: 100.0 mg/kg/injection, schedule: Q04DX003 (ip), vehicle: saline with Tween-80
[16] = endpoint: mean survival time, dose: 200.0 mg/kg/injection, schedule: Q04DX003 (ip), vehicle: saline with Tween-80
[17] = endpoint: mean survival time, dose: 400.0 mg/kg/injection, schedule: Q04DX003 (ip), vehicle: saline with Tween-80
[18] = endpoint: mean survival time, dose: 25.0 mg/kg/injection, schedule: Q01DX005 (ip), vehicle: other
[19] = endpoint: mean survival time, dose: 50.0 mg/kg/injection, schedule: Q01DX005 (ip), vehicle: other

Measured: T/C

O=C(NCCCl)Nc1ccc(O)cc1
inactive: endpoint: mean survival time, dose: 100.0 mg/kg/injection, schedule: Q01DX001 (ip), vehicle: carboxymethylcellulose (CMC) 101 % of control | endpoint: mean survival time, dose: 200.0 mg/kg/injection, schedule: Q01DX001 (ip), vehicle: carboxymethylcellulose (CMC) 98 % of control | endpoint: mean survival time, dose: 400.0 mg/kg/injection, schedule: Q01DX001 (ip), vehicle: carboxymethylcellulose (CMC) 104 % of control

Nc1ccc(S(=O)(=O)O)c2ccccc12
inactive: [1] 86 % of control | [2] 104 % of control | [3] 97 % of control | [4] 104 % of control | [5] 101 % of control | [6] 103 % of control

CC(=O)[O][Hg][c]1s[c]([Hg][O]C(C)=O)[c]([Hg][O]C(C)=O)[c]1[Hg][O]C(C)=O
inactive: endpoint: mean survival time, dose: 1.5 mg/kg/injection, schedule: Q01DX009 (ip), vehicle: saline sonified 96 % of control | endpoint: mean survival time, dose: 3.0 mg/kg/injection, schedule: Q01DX009 (ip), vehicle: saline sonified 98 % of control | endpoint: mean survival time, dose: 6.0 mg/kg/injection, schedule: Q01DX009 (ip), vehicle: saline sonified 106 % of control | endpoint: mean survival time, dose: 6.25 mg/kg/injection, schedule: Q01DX009 (ip), vehicle: Klucel (hydroxypropylcellulose) (HPC) 101 % of control | endpoint: mean survival time, dose: 6.25 mg/kg/injection, schedule: Q04DX003 (ip), vehicle: saline with Tween-80 104 % of control | endpoint: mean survival time, dose: 12.5 mg/kg/injection, schedule: Q01DX009 (ip), vehicle: Klucel (hydroxypropylcellulose) (HPC) 106 % of control | [7] 104 % of control

CC(=O)Nc1ccc(/C=C2\N=C(c3cccc(Cl)c3)OC2=O)cc1
inactive: [8] 90 % of control | endpoint: mean survival time, dose: 200.0 mg/kg/injection, schedule: Q04DX002 (ip), vehicle: saline with Tween-80 98 % of control | endpoint: mean survival time, dose: 400.0 mg/kg/injection, schedule: Q04DX002 (ip), vehicle: saline with Tween-80 105 % of control

O=C1CC(=O)C(Br)=C1Br
inactive: endpoint: mean survival time, dose: 0.75 mg/kg/injection, schedule: Q01DX009 (ip), vehicle: saline with Tween-80 95 % of control | endpoint: mean survival time, dose: 1.5 mg/kg/injection, schedule: Q01DX009 (ip), vehicle: saline with Tween-80 95 % of control | endpoint: mean survival time, dose: 3.0 mg/kg/injection, schedule: Q01DX009 (ip), vehicle: saline with Tween-80 90 % of control

NC1=NCNC(=O)N1
inactive: endpoint: mean survival time, dose: 6.25 mg/kg/injection, schedule: Q04DX003 (ip), vehicle: saline 102 % of control | endpoint: mean survival time, dose: 12.5 mg/kg/injection, schedule: Q04DX003 (ip), vehicle: saline 91 % of control | endpoint: mean survival time, dose: 25.0 mg/kg/injection, schedule: Q04DX003 (ip), vehicle: saline 93 % of control | endpoint: mean survival time, dose: 50.0 mg/kg/injection, schedule: Q04DX003 (ip), vehicle: saline 98 % of control | [3] 96 % of control | [5] 96 % of control | [6] 98 % of control

Cc1ccc(S(=O)(=O)OCC2C3CCC(C3)C2COS(=O)(=O)c2ccc(C)cc2)cc1 (stereo not given)
inactive: [9] 95 % of control | endpoint: mean survival time, dose: 50.0 mg/kg/injection, schedule: Q04DX002 (ip), vehicle: saline with Tween-80 95 % of control | [8] 95 % of control and 98 % of control

CCOC(OCC)c1nc(N)nc(N)c1-c1ccc(Cl)c(Cl)c1
inactive: endpoint: mean survival time, dose: 134.0 mg/kg/injection, schedule: Q01DX009 (ip), vehicle: other 123 % of control | endpoint: mean survival time, dose: 200.0 mg/kg/injection, schedule: Q01DX009 (ip), vehicle: other 111 % of control | endpoint: mean survival time, dose: 300.0 mg/kg/injection, schedule: Q01DX009 (ip), vehicle: other 88 % of control

COc1ccc(/C=C(\C)[N+](=O)[O-])cc1OC
inactive: endpoint: mean survival time, dose: 12.5 mg/kg/injection, schedule: Q01DX009 (ip), vehicle: water 105 % of control | endpoint: mean survival time, dose: 25.0 mg/kg/injection, schedule: Q01DX009 (ip), vehicle: water 93 % of control | endpoint: mean survival time, dose: 50.0 mg/kg/injection, schedule: Q01DX009 (ip), vehicle: water 93 % of control

Fc1c(F)c(F)c(-c2c(F)c(F)c(-c3c(F)c(F)c(-c4c(F)c(F)c(F)c(F)c4F)c(F)c3F)c(F)c2F)c(F)c1F
inactive: [10] 96 % of control | [11] 88 % of control

CC(=O)Nc1nc(CCCCc2ccccc2)cc(=O)[nH]1
inactive: endpoint: mean survival time, dose: 37.5 mg/kg/injection, schedule: Q01DX001 (ip), vehicle: saline with Tween-80 100 % of control | endpoint: mean survival time, dose: 75.0 mg/kg/injection, schedule: Q01DX001 (ip), vehicle: saline with Tween-80 96 % of control | endpoint: mean survival time, dose: 150.0 mg/kg/injection, schedule: Q01DX001 (ip), vehicle: saline with Tween-80 94 % of control

Cc1ccc(NC(=O)Nc2ccccc2C(N)=O)cc1[N+](=O)[O-]
inactive: [12] 94 % of control | [10] 98 % of control

O=[N+]([O-])c1ccc(C(O)C(O)c2ccccc2)cc1 (stereo not given)
inactive: [13] 96 % of control | [14] 92 % of control | endpoint: mean survival time, dose: 400.0 mg/kg/injection, schedule: Q01DX001 (ip), vehicle: saline with Tween-80 95 % of control

Clc1c(Cl)c(Cl)c(C(c2c(Cl)c(Cl)c(Cl)c(Cl)c2Cl)c2c(Cl)c(Cl)c(Cl)c(Cl)c2Cl)c(Cl)c1Cl
inactive: [15] 98 % of control | [16] 98 % of control | [17] 110 % of control

Cc1ccc([N+](=O)[O-])cc1NC(=O)Nc1ncccn1
inactive: [1] 93 % of control | [2] 96 % of control | [4] 93 % of control

O=C1OCC/C1=C\c1cccc2ccccc12
inactive: [15] 102 % of control | [16] 96 % of control | [17] 97 % of control

OC12CC3CC(CC(C3)C1)C2
inactive: endpoint: mean survival time, dose: 50.0 mg/kg/injection, schedule: Q01DX001 (ip), vehicle: saline with Tween-80 104 % of control | [13] 116 % of control | [14] 98 % of control

Nc1cc(=O)c2ncn(C3OC(CO)C(O)C3O)c2[nH]1 (stereo not given)
inactive: [18] 98 % of control | [19] 93 % of control | endpoint: mean survival time, dose: 100.0 mg/kg/injection, schedule: Q01DX005 (ip), vehicle: other 87 % of control | endpoint: mean survival time, dose: 200.0 mg/kg/injection, schedule: Q01DX005 (ip), vehicle: other 106 % of control | endpoint: mean survival time, dose: 400.0 mg/kg/injection, schedule: Q01DX005 (ip), vehicle: other 103 % of control

N#CC(C#N)=Cc1cccc2ccccc12
inactive: endpoint: mean survival time, dose: 50.0 mg/kg/injection, schedule: Q04DX003 (ip), vehicle: Klucel (hydroxypropylcellulose) (HPC) 98 % of control | endpoint: mean survival time, dose: 100.0 mg/kg/injection, schedule: Q04DX003 (ip), vehicle: Klucel (hydroxypropylcellulose) (HPC) 103 % of control | endpoint: mean survival time, dose: 200.0 mg/kg/injection, schedule: Q04DX003 (ip), vehicle: Klucel (hydroxypropylcellulose) (HPC) 101 % of control

COc1ccc2c(c1)CCc1cnn(C3OC(COC(C)=O)C(OC(C)=O)C(OC(C)=O)C3OC(C)=O)c1-2 (stereo not given)
inactive: endpoint: mean survival time, dose: 12.5 mg/kg/injection, schedule: Q01DX005 (ip), vehicle: other 92 % of control | [18] 90 % of control | [19] 87 % of control

NCc1cccn1OCc1ccccc1
inactive: [7] 96 % of control | [1] 96 % of control | [2] 107 % of control

CC12CC1(C)C(=O)OC2=O (stereo not given)
inactive: [12] 96 % of control | [10] 95 % of control | [11] 96 % of control

CNc1ccn(C2OC(CO)C(O)C2SC(C)(C)C)c(=O)n1 (stereo not given)
inactive: endpoint: median survival time, dose: 12.5 mg/kg/injection, schedule: Q01DX005 (ip), vehicle: saline 105 % of control | endpoint: median survival time, dose: 25.0 mg/kg/injection, schedule: Q01DX005 (ip), vehicle: saline 105 % of control | endpoint: median survival time, dose: 50.0 mg/kg/injection, schedule: Q01DX005 (ip), vehicle: saline 100 % of control | endpoint: median survival time, dose: 100.0 mg/kg/injection, schedule: Q01DX005 (ip), vehicle: saline 102 % of control | endpoint: median survival time, dose: 200.0 mg/kg/injection, schedule: Q01DX005 (ip), vehicle: saline 100 % of control

C=C[CH2][Sn]([Br])([c]1ccccc1)[c]1ccccc1
inactive: endpoint: mean survival time, dose: 6.25 mg/kg/injection, schedule: Q01DX009 (ip), vehicle: saline with Tween-80 94 % of control | [9] 89 % of control

Cc1nc(SCc2ccc(Cl)cc2)[nH]c(=O)c1CCO
inactive: [15] 92 % of control | [16] 96 % of control | [17] 94 % of control

NC1CCCN(Cc2ccccc2)C1 (stereo not given)
inactive: endpoint: mean survival time, dose: 75.0 mg/kg/injection, schedule: Q01DX001 (ip), vehicle: saline 95 % of control | endpoint: mean survival time, dose: 150.0 mg/kg/injection, schedule: Q01DX001 (ip), vehicle: saline 97 % of control | endpoint: mean survival time, dose: 300.0 mg/kg/injection, schedule: Q01DX001 (ip), vehicle: saline 97 % of control
